Here are results for 2 molecules from ChEMBL document CHEMBL1152840, “Antileukotrienic phenethylamido derivatives of arylalkanoic acids in the treatment of ulcerative colitis” (Eur J Med Chem, 2009).

For data set [1], the system named is Mus musculus. As to the kind of experiment: Antiinflammatory activity in mouse assessed as inhibition of arachidonic acid-induced ear lobe edema at 200 mg/kg, po administered 1 hr before arachidonic acid challenge measured after 1 hr relative to untreated control. Type of data set: functional.
In data set [2] the test system is Mus musculus. Nature of the data set: Antiinflammatory activity against dextrane disodium sulfate-induced ulcerative colitis in BALB/c mouse assessed as diseased animal with stool consistency at 250 mg/kg administered 1 hr before dextrane disodium sulfate challenge. It counts as functional.
Another data set has as its system Rattus norvegicus. Nature of the data set: Antiinflammatory activity in rat assessed as inhibition of carrageenan-induced edema at 100 mg/kg relative to untreated control. It counts as functional. (In general: In the carrageenan paw model, swelling and tenderness develop within hours.)
Data set [3] can be described thus: Antileukotrienic activity in rat PMNC assessed as inhibition of Ca2+ ionophore A23187-induced LTB4 production by RIA. It counts as functional.
For data set [4], the system named is Mus musculus. As to the kind of experiment: Antiinflammatory activity against dextrane disodium sulfate-induced ulcerative colitis in BALB/c mouse assessed as diseased animal with rectal prolapse at 250 mg/kg administered 1 hr before dextrane disodium sulfate challenge. It counts as functional.
Data set [5] can be described thus: Lipophilicity, log K by HPLC method. It counts as physicochemical.
Data set [6] has as its system Mus musculus. Nature of the data set: Antiinflammatory activity against dextrane disodium sulfate-induced ulcerative colitis in BALB/c mouse assessed as diseased animal with small intestine bleeding at 250 mg/kg administered 1 hr before dextrane disodium sulfate challenge. It counts as functional.
Data set [7] deals with Mus musculus. Nature of the data set: Antiinflammatory activity against dextrane disodium sulfate-induced ulcerative colitis in BALB/c mouse assessed as length of colon at 250 mg/kg administered 1 hr before dextrane disodium sulfate challenge. Type of data set: functional.
Data set [8] relates to Mus musculus. As to the kind of experiment: Antiinflammatory activity against dextrane disodium sulfate-induced ulcerative colitis in BALB/c mouse assessed as diseased animal with large intestine bleeding at 250 mg/kg administered 1 hr before dextrane disodium sulfate challenge. Type of data set: functional.
The test system of data set [9] is Mus musculus. Nature of the data set: Antiinflammatory activity in mouse assessed as inhibition of arachidonic acid-induced ear lobe hyperemia at 200 mg/kg, po administered 1 hr before arachidonic acid challenge measured after 1 hr relative to untreated control. Type of data set: functional.

A word on the inhibition in vivo: it is the percentage by which the read-out fell short of the control. For orientation: IC50 means the concentration at which inhibition is half-maximal.

As to `CN(CCc1ccccc1)C(=O)Cc1ccc(OCCOc2ccc(C(=O)CCC(=O)O)cc2)cc1`, the inhibition in vivo at 200 mg/kg is 16% in the data set with Mus musculus [1] and 3.6% in the data set with Mus musculus [9]. For the same molecule, the Activity in the data set with Mus musculus [2] worked out at 0%; in the data set with Mus musculus [4] it was 0%; with Mus musculus [6] it was 0%; in the data set with Mus musculus [7], 9.2 cm; with Mus musculus [8] it was 20%. Also, in the data set with Rattus norvegicus, the inhibition in vivo at 100 mg/kg stood at 38%. Also, in [3], the IC50 stood at 20 µM. For the same molecule, in data set [5], the “log K” value is -0.089.

`CC(C(=O)O)c1cccc2ccc(OCCCCOc3ccc(CC(=O)NCCc4ccccc4)cc3)cc12` (stereo not given): the inhibition in vivo at 200 mg/kg turned out to be 26% with Mus musculus [1] and 3.3% in the data set on Mus musculus [9]. The Activity in the data set with Mus musculus [2] is recorded as 20%; with Mus musculus [4], 0%; with Mus musculus [6], 0%; in the data set with Mus musculus [7] it was 7.5 cm; in the data set on Mus musculus [8], 80%. In the data set with Rattus norvegicus, the inhibition in vivo at 100 mg/kg came to 22%. Also, the IC50 in data set [3] was 5.6 µM. In data set [5], the “log K” value is reported as 0.755.
